Test results as given in patent publication US20120035206A1, “PREPARATION AND APPLICATION OF NOVEL ANTIBACTERIAL AND ANTICANCER COMPOUNDS AND THEIR DERIVATIVES” (priority 2009, published 2012).
≈ marks a conversion by molar mass, not a printed value.

Columns and labels:
Assay type in all cases: cell-based
C. neoformans = test: In vitro antibacterial (antifungal) test, two-fold dilution MIC; details: Cryptococcus neoformans, RPMI 1640, culture 2-7 days
Protocol: (§1) In vitro antibacterial experiments of 25 compounds as anti-bacterial and anti-cancer compounds in the patent were tested using 14 kinds of bacteria. Tested bacteria: C. albicans, C. tropicalis, C. neoformans, E. floccosum, M. gypseum, A. niger, S. schenekn, C. parapsilosis, C. glabrata, C. Krusei, Trichoderma, Gibberella, Setrosphaeria turcica, Fusarium Oxysporum Vasinfectum. (Bacteria were from the Dermatology Hospital of Chinese Academy of Medical Sciences, Nanjing, China.)
(§2) The Preparation of tested Bacteria solution was following: incubated Bacteria were added to 5 ml physiological saline, and then they were mashed and placed with ultrasound. The solution was fully mixed, and insoluble substances were removed. The treated solution was called the original bacterium solution. In the test, the bacteria concentration in the original bacterium solution was adjusted to […].
(§3) Tested Methods: the tested compounds were dissolved in dimethyl sulfoxide. and the solution was diluted with sterile distilled water. And the distilled solution was added to sterilized RPMI 1640 medium. The concentration of the compounds were adjusted to 256, 128, 64, 32, 16, 8, 4, 2, 1, 0.5, 0.25, 0.125 ug*ml-1. Then the adjusted solutions were inoculated with tested bacteria, and the tested systems were placed in the constant temperature oven to culture for 2-7 days. The concentration at which there was no growing of fungi was taken as the minimum inhibitory concentration (MIC).

S. schenekn = test: as above; details: RPMI 1640, culture 2-7 days
Protocol: as §1, §2, §3

M. gypseum = test: as above; details: Nannizzia gypsea, RPMI 1640, culture 2-7 days
Protocol: as §1, §2, §3

C. tropicalis = test: as above; details: Candida tropicalis, RPMI 1640, culture 2-7 days
Protocol: as §1, §2, §3

C. glabrata = test: as above; details: Nakaseomyces glabratus, RPMI 1640, culture 2-7 days
Protocol: as §1, §2, §3

Setosphaeria turcica = test: as above; details: Exserohilum turcicum, RPMI 1640, culture 2-7 days
Protocol: as §1, §2, §3

Terchoderma = test: as above; details: Trichoderma, RPMI 1640, culture 2-7 days
Protocol: as §1, §2, §3

E. floccosum = test: as above; details: Epidermophyton floccosum, RPMI 1640, culture 2-7 days
Protocol: as §1, §2, §3

C. Krusei = test: as above; details: Pichia kudriavzevii, RPMI 1640, culture 2-7 days
Protocol: as §1, §2, §3

C. albicans = test: as above; details: Candida albicans, read-out: MIC C. albicas
Protocol: as §1, §2, §3

C. parapsilosis = test: as above; details: Lodderomyces parapsilosis, RPMI 1640, culture 2-7 days
Protocol: as §1, §2, §3

[1] = tested on: Fusarium oxysporum vasinfectum; test: as above; details: RPMI 1640, culture 2-7 days
Protocol: as §1, §2, §3

HTB-95637 = test: In vitro anticancer MTT experiment; details: concentration 5 ug/ml, 48 h or 72 h, read-out: inhibition ratio HTB-95637
Protocol: (§4) In vitro anticancer experiments of 25 compounds as anti-bacterial and anti-cancer compounds in the patent were tested. In the test, 14 kinds of cancer cells were used as tested cancer cells. And the results obtained by MTT method were shown in table 2 (the inhibition ratio was obtained when the concentration was 5 ug/ml). Tested Cancer Cells: SGC7901, HTB-38HT-29, CRL-2233NU-398, CRL-1469PANC-1, B0192, HTB-131MDA-453, CRL-1435PC-3, FTC133, AS24391, HTB-95637. (Cancer cells were from Chinese Military Academy of Medical Sciences). Cells Culture: Culture solution was composed of RPMI 1640 medium, 10% (VAT) Fetal calf serum and 0.01% L-glutamine. Cultured cells were maintained at 37° C. in an incubator with 5% CO2. The cells at logarithmic growth phase were used in the experiment. MTT Experiment: Single cell suspension was obtained by digesting cells with 0.25% trypsin. The cells at logarithmic growth phase were collected and seeded in a 96-well plate at a concentration of 6000-7000 cells per well. After culturing for 12 h at 37° C. in the incubator with 5% CO2, the cells were again incubated with the tested compounds of various concentrations for 48 h or 72 h. Pure cultures and cells without drug were taken as blank reference and negative reference, and 8 Wells of each group were taken. Twenty microliter of MTT (5 mg/mL) was added to each well, and the mixed solutions were incubation for 4 h. The formazan product was dissolved by dimethyl sulfoxide (DMSO, 150 μL), and the optical density (O.D.) was read at 570 nm. The Inhibition Ratio was calculated by the following formula: Inhibition Ratio=(Anegative control−Asample)/(Anegative control−Ablank control)

FTC 133 = test: In vitro anticancer MTT experiment; details: Homo sapiens, concentration 5 ug/ml, 48 h or 72 h, read-out: inhibition ratio FTC 133
Protocol: as §4

HTB-94 = test: In vitro anticancer MTT experiment; details: concentration 5 ug/ml, 48 h or 72 h, read-out: inhibition ratio HTB-94
Protocol: as §4

L1210 = test: In vitro anticancer MTT experiment; details: Mus musculus, concentration 5 ug/ml, 48 h or 72 h, read-out: inhibition ratio L1210
Protocol: as §4

CRL-1435PC-3 = test: In vitro anticancer MTT experiment; details: concentration 5 ug/ml, 48 h or 72 h, read-out: inhibition ratio CRL-1435PC-3
Protocol: as §4

CRL-2233SNU-398 = test: In vitro anticancer MTT experiment; details: concentration 5 ug/ml, 48 h or 72 h, read-out: inhibition ratio CRL-2233SNU-398
Protocol: as §4

B01092 = test: In vitro anticancer MTT experiment; details: concentration 5 ug/ml, 48 h or 72 h, read-out: inhibition ratio B01092
Protocol: as §4

HTB-131MDA-MB-453 = test: In vitro anticancer MTT experiment; details: concentration 5 ug/ml, 48 h or 72 h, read-out: inhibition ratio HTB-131MDA-MB-453
Protocol: as §4

A375 = test: In vitro anticancer MTT experiment; details: Homo sapiens, A-375, concentration 5 ug/ml, 48 h or 72 h, read-out: inhibition ratio A375
Protocol: as §4

HTB-38HT-29 = test: In vitro anticancer MTT experiment; details: concentration 5 ug/ml, 48 h or 72 h, read-out: inhibition ratio HTB-38HT-29
Protocol: as §4

L428 = test: In vitro anticancer MTT experiment; details: Homo sapiens, L-428, concentration 5 ug/ml, 48 h or 72 h, read-out: inhibition ratio L428
Protocol: as §4

AS24391 = test: In vitro anticancer MTT experiment; details: concentration 5 ug/ml, 48 h or 72 h, read-out: inhibition ratio AS24391
Protocol: as §4

CRL-1469PANC-1 = test: In vitro anticancer MTT experiment; details: concentration 5 ug/ml, 48 h or 72 h, read-out: inhibition ratio CRL-1469PANC-1
Protocol: as §4

SGC7901 = test: In vitro anticancer MTT experiment; details: Homo sapiens, SGC-7901, concentration 5 ug/ml, 48 h or 72 h, read-out: inhibition ratio SGC7901
Protocol: as §4

Row | SMILES | MIC (C. neoformans) [µg/mL] | MIC (S. schenekn) [µg/mL] | MIC (M. gypseum) [µg/mL] | MIC (C. tropicalis) [µg/mL] | MIC (C. glabrata) [µg/mL] | MIC (Setosphaeria turcica) [µg/mL] | MIC (Terchoderma) [µg/mL] | MIC (E. floccosum) [µg/mL] | MIC (C. Krusei) [µg/mL] | MIC (C. albicans) [µg/mL] | MIC (C. parapsilosis) [µg/mL] | MIC [1] [µg/mL] | inhibition at 5 µg/mL (HTB-95637) [%] | inhibition at 5 µg/mL (HTB-94) [%] | inhibition at 5 µg/mL (L1210) [%] | inhibition at 5 µg/mL (CRL-1435PC-3) [%] | inhibition at 5 µg/mL (CRL-2233SNU-398) [%] | inhibition at 5 µg/mL (B01092) [%] | inhibition at 5 µg/mL (HTB-131MDA-MB-453) [%] | inhibition at 5 µg/mL (HTB-38HT-29) [%] | also measured
1 | Cc1ccc2c(c1)C(O)/C(=C/Cl)CS2 (stereo not drawn) [Compound 17, (Z)-3-(chloromethylene)-6-methylthiochroman-4-ol] | 16 (≈ 70.6 µM) | 32 (≈ 141 µM) | 4 (≈ 17.6 µM) | 4 (≈ 17.6 µM) | 32 (≈ 141 µM) | 16 (≈ 70.6 µM) | 32 (≈ 141 µM) | 16 (≈ 70.6 µM) | 16 (≈ 70.6 µM) | 16 (≈ 70.6 µM) | 16 (≈ 70.6 µM) | – | – | – | – | – | – | – | – | – | –
2 | O=C1/C(=C\O)CSc2ccc(F)cc21 [Compound 3, 6-fluorine-3-(hydroxylmethene)thiochroman-4-one] | 16 (≈ 76.1 µM) | 64 (≈ 304 µM) | – | 32 (≈ 152 µM) | 64 (≈ 304 µM) | – | – | – | 32 (≈ 152 µM) | 32 (≈ 152 µM) | 32 (≈ 152 µM) | – | – | – | – | – | – | – | – | – | –
3 | O=C1/C(=C/Cl)CSc2ccc(F)cc21 [Compound 7, (Z)-3-(chloromethylene)-6-fluorothiochroman-4-one] | 16 (≈ 70 µM) | 2 (≈ 8.75 µM) | 8 (≈ 35 µM) | 16 (≈ 70 µM) | 16 (≈ 70 µM) | 16 (≈ 70 µM) | 8 (≈ 35 µM) | 4 (≈ 17.5 µM) | 16 (≈ 70 µM) | 4 (≈ 17.5 µM) | 8 (≈ 35 µM) | 32 (≈ 140 µM) | 60.1 | 65.4 | 79.8 | 51.2 | 49.9 | 54.8 | 48.6 | 45.7 | inhibition at 5 µg/mL (FTC 133): 52.6%; inhibition at 5 µg/mL (A375): 56%; inhibition at 5 µg/mL (L428): 57.3%; inhibition at 5 µg/mL (AS24391): 58.3%
4 | Cc1cc2c(cc1F)SC/C(=C\Br)C2=O [Compound 9, (Z)-3-(bromomethylene)-7-fluoro-6-methylthiochroman-4-one] | 1 (≈ 3.48 µM) | 32 (≈ 111 µM) | 64 (≈ 223 µM) | 32 (≈ 111 µM) | 64 (≈ 223 µM) | 32 (≈ 111 µM) | 64 (≈ 223 µM) | 32 (≈ 111 µM) | 4 (≈ 13.9 µM) | 64 (≈ 223 µM) | 8 (≈ 27.9 µM) | 64 (≈ 223 µM) | 55.8 | 65.6 | 89.5 | 36 | 45.6 | 39.4 | 56.7 | 74.6 | inhibition at 5 µg/mL (CRL-1469PANC-1): 60.1%; inhibition at 5 µg/mL (L428): 50.1%; inhibition at 5 µg/mL (SGC7901): 50.4%; inhibition at 5 µg/mL (AS24391): 57%
